Patent publication US11668699B2, “Compositions and methods for determining mechanical properties of cells” (Arizona Board of Regents on Behalf of the University of …, priority 2016, dated 2023)
Like-named read-outs stand apart in the source and are kept apart here.

Tests used:
platelets [1] = conditions: for Platelet deformation along the axis of maximum extension, normalized to the original length: platelets treated with 0.4% paraformaldehyde, 1 MHz
Protocol: Gel filtered platelets were prepared as previously described, from whole blood drawn from aspirin and non-steroidal anti-inflammatory medication free volunteers providing informed consent (Sheriff, J., et al., High-shear stress sensitizes platelets to subsequent low-shear conditions. Ann Biomed Eng, 2010. 38(4): p. 1442-50).
A 127 μm-thick hollow polymer spacer was placed on top of the chip to create a fluid chamber and the chip was covered with a coverslip for microscopic observation. All chip glass surfaces were coated with Sigmacote (Sigma-Aldrich, MO, USA) and rinsed with D.I. water to prevent surface-induced platelet activation.
To visualize platelets they were first exposed to Alexa Fluor 594 conjugated wheat germ agglutinin (1 μg/mL, 10 mins, 37° C., Invitrogen, CA). Platelets were then diluted 100-200 fold (v/v) in isotonic buffer (Pommer, M. S., et al., Dielectrophoretic separation of platelets from diluted whole blood in microfluidic channels. Electrophoresis, 2008. 29(6): p. 1213-8) containing 8.5% w/v sucrose and 0.3% w/v dextrose until the medium conductivity reached ˜1500/cm. as measured by a Jenway 4520 conductivity meter (Jenway, Staffordshire, UK). 50 μl of the diluted platelets sample were pipetted into the fluid chamber of the microelectrode chip. An alternating electric current in a sine wave pattern was generated across the microelectrodes using a function generator (332220A, Agilent, CA,) connected to a wideband power amplifier (7600M, Krohn-hite, MA). The amplitude of applied voltage was monitor via digital oscilloscope (GDS-1102, GW Instek, CA). The sample chip was imaged via fluorescence microscopy (Eclipse E800, 100× oil, Nikon, N.Y.), images were captured via CCD (Sensicam 12bt CCD camera, Cooke Corporation, MI), processed and quantified using NIH Image J software.
In the studies, platelet deformations under sequential increase of applied voltage, from 0 to 90Vpk-pk at 15V steps, were measured at a frequency of 1 MHz and the result is shown in FIG. 4A. […] Images of deformed platelets were captured in a duration ˜5s.

platelets [2] = experiment: Platelet activation assay: cell surface expression of P-selectin by immunofluorescence; type: cell-based, human; conditions: 0.125 μM thrombin, 10 mins, 37° C.; mean ± standard error, >70 platelets
Text: (§1) Platelet activation level was quantified via cell surface expression of P-selectin utilizing immunohistochemical staining (Hsulin, S. C., et al., A Platelet Membrane-Protein Expressed during Platelet Activation and Secretion-Studies Using a Monoclonal Antibody Specific for Thrombin-Activated Platelets. Journal of Biological Chemistry, 1984. 259(14): p. 9121-9126; Berman, C. L., et al., A Platelet Alpha Granule Membrane-Protein That Is Associated with the Plasma-Membrane after Activation-Characterization and Subcellular-Localization of Platelet Activation Dependent Granule-External Membrane-Protein. Journal of Clinical Investigation, 1986. 78(1): p. […] Platelets were paraformaldehyde fixed (3%, 20 mins) rinsed and incubated (30 min., 37° C.) with FITC Mouse Anti-Human CD62P (50 μl, 1:5 (v/v) dilution in PBS, BD Biosciences, CA) and imaged using fluorescence microscopy. Fluorescence intensity levels were measured following background subtraction. […] Activation of the positive and negative controls was also quantified via the chemically modified prothrombin-based platelet activation state (PAS) assay (Jesty, J. and D. Bluestein, Acetylated prothrombin as a substrate in the measurement of the procoagulant activity of platelets: Elimination of the feedback activation of platelets by thrombin. Analytical Biochemistry, 1999. 272(1): p. 64-70.).

platelets [3] = experiment: Chemically modified prothrombin-based platelet activation state (PAS) assay; type: cell-based, human; conditions: 0.125 μM thrombin, 10 mins, 37° C.
Text: as §1

Row | Substance | Decrease in deformation compared to untreated platelets (platelets [1]; 0.4% paraformaldehyde, 90Vpk-pk applied voltage, p-value=0.0002) [times] | Young's modulus of platelets (slope of linear fitted stress-deformation curve) (platelets [1]; platelets treated by 0.4% paraformaldehyde, stress from Maxwell stress tensor simulation) | Platelet deformation along the axis of maximum extension, normalized to the original length (platelets [1]; applied voltage 15 V) [%] | Platelet deformation along the axis of maximum extension, normalized to the original length (platelets [1]; applied voltage 90 V) [%] | P-selectin expression, averaged fluorescence intensity level (platelets [2]) | Platelet activation level (PAS assay) (platelets [3]) [%]
1 | paraformaldehyde | 2.75 | 8.5+/−1.5 kPa | 0.73±1.33 | 4.90±1.98 | – | –
2 | thrombin | – | – | – | – | 1526.15±75.04 | 24.7
